Measured values taken from PubChem BioAssay (NCI).
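Compound exposure: 48 hours, 5 concentrations, 96-well plates. TGI marks complete inhibition of growth.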

How the values were obtained:
Experiment in all cases: DTP human tumour cell line panel, 48 h
[1] = system: CAKI-1 renal
[2] = system: A549 NSCLC
[3] = system: HCT-15 colon
[4] = system: A498 renal
[5] = system: U251 CNS
[6] = system: UO-31 renal
[7] = system: RXF 393 renal
[8] = system: ACHN renal
[9] = system: SF-539 CNS
[10] = system: M14 melanoma
[11] = system: SF-295 CNS
[12] = system: HOP-92 NSCLC
[13] = system: NCI-H226 lung
[14] = system: HCT-116 colon
[15] = system: HS 578T breast
[16] = system: OVCAR-4 ovarian
[17] = system: IGROV1 ovarian
[18] = system: NCI-H460 lung
[19] = system: SK-OV-3 ovarian
[20] = system: SK-MEL-2 melanoma
[21] = system: T-47D breast
[22] = system: HOP-62 NSCLC
[23] = system: 786-0 renal
[24] = system: MDA-MB-435
[25] = system: MCF7 breast
[26] = system: SNB-75 CNS
[27] = system: NCI-H522 lung
[28] = system: KM12 colon
[29] = system: PC-3 prostate
[30] = system: HCC-2998 colon
[31] = system: MDA-MB-231 breast
[32] = system: NCI-H23 lung
[33] = system: SNB-19 CNS
[34] = system: DU-145 prostate
[35] = system: OVCAR-3 ovarian
[36] = system: LOX IMVI melanoma
[37] = system: OVCAR-8 ovarian
[38] = system: HT29 colon
[39] = system: SF-268 CNS
[40] = system: SK-MEL-5 melanoma
[41] = system: NCI/ADR-RES ovarian
[42] = system: COLO 205 colon
[43] = system: OVCAR-5 ovarian
[44] = system: BT-549 breast
[45] = system: MDA-N
[46] = system: TK-10 renal
[47] = system: MALME-3M melanoma
[48] = system: UACC-257 melanoma
[49] = system: UACC-62 melanoma
[50] = system: SN12C renal
[51] = system: EKVX NSCLC
[52] = system: CCRF-CEM leukemia
[53] = system: SW-620 colon
[54] = system: K-562 leukemia
[55] = system: RPMI-8226 leukemia
[56] = system: HL-60(TB) leukemia
[57] = system: MOLT-4 leukemia
[58] = system: SK-MEL-28 melanoma

SMILES: C=C(Cl)CN1c2ccccc2C=Cc2ccccc21
- TGI [1]: 52.9 µM
- TGI [2]: > 100 µM
- TGI [3]: > 100 µM
- TGI [4]: 66.9 µM
- TGI [5]: 30.9 µM
- TGI [6]: 82 µM
- TGI [7]: 33 µM
- TGI [8]: 35.4 µM
- TGI [9]: 75.2 µM
- TGI [10]: 57.8 µM
- TGI [11]: 35.2 µM
- TGI [12]: 61.2 µM
- TGI [13]: 70.2 µM
- TGI [14]: 29 µM
- TGI [15]: > 100 µM
- TGI [16]: 97.9 µM
- TGI [17]: > 100 µM
- TGI [18]: 16.2 µM
- TGI [19]: > 100 µM
- TGI [20]: 40.6 µM
- TGI [21]: 65.2 µM
- TGI [22]: 89.9 µM
- TGI [23]: > 100 µM
- TGI [24]: 44.7 µM
- TGI [25]: 50.4 µM
- TGI [26]: 61.9 µM
- TGI [27]: 82 µM
- TGI [28]: 48.9 µM
- TGI [29]: > 100 µM
- TGI [30]: 33.7 µM
- TGI [31]: 35.7 µM
- TGI [32]: > 100 µM
- TGI [33]: > 100 µM
- TGI [34]: > 100 µM
- TGI [35]: 33.9 µM
- TGI [36]: 52.4 µM
- TGI [37]: > 100 µM
- TGI [38]: 56.4 µM
- TGI [39]: > 100 µM
- TGI [40]: 20.3 µM
- TGI [41]: > 100 µM
- TGI [42]: 30.4 µM
- TGI [43]: 50.8 µM
- TGI [44]: > 100 µM
- TGI [45]: 64.1 µM
- TGI [46]: > 100 µM
- TGI [47]: 77.9 µM
- TGI [48]: 49.8 µM
- TGI [49]: 44.2 µM
- TGI [50]: 57.3 µM
- TGI [51]: 49.9 µM

SMILES: CC1/C(=N/O)CC(c2ccccc2)N(N=O)C1c1ccccc1 (configuration not stated)
- TGI [52]: > 100 µM
- TGI [1]: > 100 µM
- TGI [2]: > 100 µM
- TGI [3]: > 100 µM
- TGI [5]: > 100 µM
- TGI [53]: > 100 µM
- TGI [6]: > 100 µM
- TGI [7]: > 100 µM
- TGI [8]: > 100 µM
- TGI [9]: > 100 µM
- TGI [10]: > 100 µM
- TGI [11]: > 100 µM
- TGI [12]: > 100 µM
- TGI [13]: > 100 µM
- TGI [14]: > 100 µM
- TGI [15]: > 100 µM
- TGI [16]: > 100 µM
- TGI [17]: > 100 µM
- TGI [18]: > 100 µM
- TGI [19]: > 100 µM
- TGI [20]: > 100 µM
- TGI [21]: > 100 µM
- TGI [22]: > 100 µM
- TGI [54]: > 100 µM
- TGI [55]: > 100 µM
- TGI [23]: > 100 µM
- TGI [24]: > 100 µM
- TGI [25]: > 100 µM
- TGI [56]: > 100 µM
- TGI [26]: > 100 µM
- TGI [27]: > 100 µM
- TGI [28]: > 100 µM
- TGI [29]: > 100 µM
- TGI [30]: > 100 µM
- TGI [31]: > 100 µM
- TGI [57]: > 100 µM
- TGI [32]: > 100 µM
- TGI [33]: > 100 µM
- TGI [34]: > 100 µM
- TGI [35]: > 100 µM
- TGI [36]: > 100 µM
- TGI [37]: > 100 µM
- TGI [38]: > 100 µM
- TGI [39]: > 100 µM
- TGI [40]: > 100 µM
- TGI [41]: > 100 µM
- TGI [42]: > 100 µM
- TGI [44]: > 100 µM
- TGI [45]: > 100 µM
- TGI [46]: > 100 µM
- TGI [47]: > 100 µM
- TGI [58]: > 100 µM
- TGI [48]: > 100 µM
- TGI [49]: > 100 µM
- TGI [50]: > 100 µM
- TGI [51]: > 100 µM
